The values below come from patent US12371454B2, “Cyclic peptide compound having Kras inhibitory action” (priority 2019, dated 2025).

Molecules are shown by their SMILES. Positions of bridges follow the written chain, without caps; N, C: chain ends. Non-standard residues stand in square brackets, D forms with d. Residues, ends and D or L forms follow the SMILES beside them. *: point of attachment. hPhe(3-Cl-4-CF3) = N[C@@H](CCc1ccc(C(F)(F)F)c(Cl)c1)C(=O)O; hPhe(3-F,4-CF3) = N[C@@H](CCc1ccc(C(F)(F)F)c(F)c1)C(=O)O; 3Oxa8azabicyclo(3.2.1)octane = C1CC2COCC1N2*; NMePhe(4-Cl) = CN[C@@H](Cc1ccc(Cl)cc1)C(=O)O; NMeGly(cPent) = CN[C@H](C(=O)O)C1CCCC1; NMeCha = CN[C@@H](CC1CCCCC1)C(=O)O; NMeAhp(2) = CCCCC[C@H](NC)C(=O)O; NMeChg = CN[C@H](C(=O)O)C1CCCCC1; NMeI = CC[C@H](C)[C@H](NC)C(=O)O; NMeD = CN[C@@H](CC(=O)O)C(=O)O; NMeL = CN[C@@H](CC(C)C)C(=O)O; NMeV = CN[C@H](C(=O)O)C(C)C; d(β3hA) = C[C@@H](N)CC(=O)O; NMeS = CN[C@@H](CO)C(=O)O; NMeA = CN[C@@H](C)C(=O)O; Piperidide = C1CCN(*)CC1; Pyrrolidide = C1CCN(*)C1; Ac5c = NC1(C(=O)O)CCCC1; Aze = O=C(O)[C@@H]1CCN1; NEtG = CCNCC(=O)O; Sar = CNCC(=O)O; Propyl = CCC*

Broadly, the IC50 is the concentration needed to halve the response being measured. Read a high IC50 as lower potency.

The assay deals with Human pancreatic cancer cell line AsPC-1. Nature of the assay: Measurement of AsPC-1 cell growth inhibition (AsPC-1 CGI). The assay is classed as cell-based. The settings on record: 96 h. The procedure:
Measurement of AsPC-1 Cell Growth Inhibition (AsPC-1 CGI)
Test compounds were serially diluted with dimethyl sulfoxide, and 200 nL was then dispensed to a U-bottom 96-well plate using Labcyte Echo. Human pancreatic cancer cell line AsPC-1 was suspended in RPMI-1640 medium supplemented with 15% fetal bovine serum to prepare a cell suspension at 1000 cells/100 μL. The cell suspension was dispensed to a plate containing a test compound at 100 μL per well and incubated at 37° C. in a 5% carbon dioxide gas incubator. 96 hours later, 80 μL of CellTiter-Glo (Promega) was added to each well and […] was measured.
Turning to `CC[C@H](C)[C@@H]1NC(=O)[C@H](CC(C)C)N(C)C(=O)C[C@@H](C(=O)N2CCCCC2)N(C)C(=O)[C@H](C2CCCCC2)N(C)C(=O)C2(CCCC2)NC(=O)CN(CC)C(=O)[C@H](CCc2ccc(C(F)(F)F)c(Cl)c2)NC(=O)CN(C)C(=O)[C@H](CC2CCCCC2)N(C)C(=O)CN(C)C(=O)CN(C)C1=O` [Compound 160] ([NMeL]I[Sar][Sar][NMeCha][Sar][hPhe(3-Cl-4-CF3)][NEtG][Ac5c][NMeChg][NMeD]-Piperidide; lactam N-11), the IC50 was in the range of 0.05 to 0.1 µM.
In the case of `CCCCC[C@H]1C(=O)N[C@@H]([C@@H](C)CC)C(=O)N[C@@H](C)C(=O)N2CC[C@H]2C(=O)N(C)[C@@H](COCCC)C(=O)N(C)CC(=O)N[C@@H](CCc2ccc(C(F)(F)F)c(Cl)c2)C(=O)N2CCC[C@H]2C(=O)NC2(CCCC2)C(=O)N(C)[C@@H](C2CCCC2)C(=O)N(C)[C@H](C(=O)N2C3CCC2COC3)CC(=O)N1C` [Compound 163] ([NMeAhp(2)]IA[Aze][NMeS](Propyl)[Sar][hPhe(3-Cl-4-CF3)]P[Ac5c][NMeGly(cPent)][NMeD]-{3Oxa8azabicyclo(3.2.1)octane}; lactam N-11) it was 0.05 to 0.1 µM.
The result for `CC[C@H](C)[C@@H]1NC(=O)[C@H](CC(C)C)N(C)C(=O)C[C@@H](C(=O)N2CCCCC2)N(C)C(=O)[C@H](C2CCCC2)N(C)C(=O)C2(CCCC2)NC(=O)[C@@H]2CCCN2C(=O)[C@H](CCc2ccc(C(F)(F)F)c(Cl)c2)NC(=O)CN(C)C(=O)[C@H](C2CCCC2)N(C)C(=O)[C@@H]2CCN2C(=O)[C@H](C)N(C)C1=O` [Compound 182] ([NMeL]I[NMeA][Aze][NMeGly(cPent)][Sar][hPhe(3-Cl-4-CF3)]P[Ac5c][NMeGly(cPent)][NMeD]-Piperidide; lactam N-11) reads 0.02 to 0.05 µM.
The result for `CC[C@H](C)[C@@H]1NC(=O)[C@H](CC(C)C)N(C)C(=O)C[C@@H](C(=O)N2CCCC2)N(C)C(=O)[C@H](C2CCCC2)N(C)C(=O)C2(CCCC2)NC(=O)[C@@H]2CCCN2C(=O)[C@H](CCc2ccc(C(F)(F)F)c(Cl)c2)NC(=O)CN(C)C(=O)[C@H](C2CCCC2)N(C)C(=O)[C@@H]2CCN2C(=O)[C@H](C)N(C)C1=O` [Compound 201] ([NMeL]I[NMeA][Aze][NMeGly(cPent)][Sar][hPhe(3-Cl-4-CF3)]P[Ac5c][NMeGly(cPent)][NMeD]-Pyrrolidide; lactam N-11) reads 0.02 to 0.05 µM.
`CC[C@H](C)[C@@H]1NC(=O)[C@H](CC(C)C)N(C)C(=O)C[C@@H](C)NC(=O)[C@H](C(C)C)N(C)C(=O)C2(CCCC2)NC(=O)[C@@H]2CCCN2C(=O)[C@H](CCc2ccc(C(F)(F)F)c(Cl)c2)NC(=O)CN(C)C(=O)[C@H](Cc2ccc(Cl)cc2)N(C)C(=O)[C@@H]2CCN2C(=O)CN(C)C1=O` [Compound 207] (cyclo([Ac5c][NMeV][d(β3hA)][NMeL]I[Sar][Aze][NMePhe(4-Cl)][Sar][hPhe(3-Cl-4-CF3)]P)): the IC50 fell in the range of 0.1 to 0.5 µM.
In the case of `CC[C@H](C)[C@@H]1NC(=O)[C@H](C2CCCC2)N(C)C(=O)C[C@@H](C(=O)N2CCCCC2)N(C)C(=O)[C@H](C(C)C)N(C)C(=O)C2(CCCC2)NC(=O)[C@@H]2CCCN2C(=O)[C@H](CCc2ccc(C(F)(F)F)c(Cl)c2)NC(=O)CN(C)C(=O)[C@H](CC2CCCCC2)N(C)C(=O)[C@@H]2CCN2C(=O)[C@H](C)N(C)C1=O` [Compound 225] ([NMeGly(cPent)]I[NMeA][Aze][NMeCha][Sar][hPhe(3-Cl-4-CF3)]P[Ac5c][NMeV][NMeD]-Piperidide; lactam N-11) it was 0.1 to 0.5 µM.
Take `CCCOC[C@H]1C(=O)N(C)CC(=O)N[C@@H](CCc2ccc(C(F)(F)F)c(F)c2)C(=O)N2CCC[C@H]2C(=O)NC2(CCCC2)C(=O)N(C)[C@@H]([C@@H](C)CC)C(=O)N(C)[C@H](C(=O)N2CCCCC2)CC(=O)N(C)[C@@H](CC(C)C)C(=O)N[C@@H]([C@@H](C)CC)C(=O)N(C)[C@@H](C)C(=O)N2CC[C@H]2C(=O)N1C` [Compound 236] ([NMeL]I[NMeA][Aze][NMeS](Propyl)[Sar][hPhe(3-F,4-CF3)]P[Ac5c][NMeI][NMeD]-Piperidide; lactam N-11): the IC50 is 0.02 to 0.05 µM.
